Experimental data: patent US12410211B2, “V1A receptor partial agonist and method of use” (PharmaIN Corporation, priority 2020, dated 2025)
Like-named read-outs stand apart in the source and are kept apart here. Marks after values point to notes of the source that are not given here.

What was measured:
[1] = target: T1, V1a receptor (Homo sapiens, UniProt P37288); experiment: V1a Human Vasopressin GPCR Cell Based Agonist Calcium Flux Assay; conditions: for Emax: read-out: V1a Highest agonist effect (% of AVP)
T1 construct: host or cells: CHO cells
Procedure: Peptides of Formula (I) include Mpa-Tyr-Phe-Hgn-Asn-Cys-Pro-Lys(X)a-Gly-NH2 [SEQ ID NO. 24]; where (X)a is a peptide with “a” residues and each residue X is independently selected from Gly, and a D- or L-amino acid version of Ala, Lys, Orn, Glu, and Asp, where “a” is 0-10. V1a Human Vasopressin GPCR Cell Based Agonist Calcium Flux Assay were conducted at Eurofins Cerep SA (France) on a fee for service basis. Human recombinant CHO cells expressing human V1 receptors were distributed in microplates. Intracellular calcium signal was detected by fluorimetry, and the signal was acquired before and after addition of a known agonist concentration. The following agonist concentrations were tested (nM); 0.0128, 0.064, 0.32, 1.6, 8, 40, 200, and 1,000. […] All assays were performed in duplicate. Changes in fluorescence intensity reflected changes in the concentration of free cytosolic calcium. […] The half-maximal effective concentration (EC50) was determined by a non-linear regression analysis of the concentration-response curves generated with mean replicate values using Hill equation curve fitting (Cerep, I'Evescault, France).
V1a Human Vasopressin GPCR Cell Based Agonist Calcium Flux Assay were conducted using human recombinant CHO cells expressing human V1 receptor. Briefly, human recombinant CHO cells expressing human V1 receptor were distributed in microplates at 4.5×10^4 cells/well. The fluorescent probe (Fluo4 Direct, Invitrogen) mixed with probenicid in HBSS buffer (Invitrogen) complemented with 20 mM HEPES (Invitrogen) (pH 7.4) is then added into each well and equilibrated with the cells for 60 min at 37° C. then 15 min at 22° C. Thereafter, the assay plates are positioned in a microplate reader (CellLux, PerkinElmer) which is used for the addition of the test compound, reference agonist or HBSS buffer (basal control), and the measurements of changes in fluorescence intensity which varies proportionally to the free cytosolic Ca^2+ ion concentration. The following agonist concentrations were tested (nM), 0.0128, 0.064, 0.32, 1.6, 8, 40, 200, and 1,000. […] All assays were performed in duplicate. Changes in fluorescence intensity reflected changes in the concentration of free cytosolic calcium. […] Referring to FIG. 3 and Table 4, the half-maximal effective concentration (EC50) was determined by non-linear regression analysis of the concentration-response curves generated with mean replicate values using Hill equation curve fitting (Cerep, I'Evescault, France).

[2] = Therapeutic index (NOAEL/NOEL): paleness, lethargy, ataxia observation in Sprague-Dawley rats (Example 7); assay type: in vivo; conditions: for Paleness (Duration, hrs; SD) / Highest dose with no-observed effect level or paleness (NOEL) / NOAEL/NOEL (therapeutic index) / NOAEL at 24 h: S.C.; for Highest dose with no-observed effect level or paleness (NOEL) / NOAEL/NOEL (therapeutic index) / NOAEL at 24 h / Marked adverse effect (Lowest dose first showed Ataxia) / Mild adverse effect (Lowest dose first showed Lethargy): rat; for NOAEL at 24 h: male, Sprague-Dawley, read-out: Highest dose with no-observed adverse effect level without lethargy (NOAEL); for NOAEL at 24 h / Marked adverse effect (Lowest dose first showed Ataxia) / Mild adverse effect (Lowest dose first showed Lethargy): in vivo, sc
Text: As used herein, the term “therapeutic index” (TI; also referred to as therapeutic ratio) is a quantitative measure of the relative safety of a drug. […] For the purpose of the present application, lethargy is a lack of energy and/or sleepiness which is visually observed in rats as a lack of mobility, such as a lack of mobility even in the presence of human activity. For the purpose of present specification, peripheral vasoconstriction is visually observed by a paleness of the extremities (e.g., skin of hands, feet, ears, and lips). In rats, peripheral vasoconstriction is determined by a side-by-side comparison of ear paleness in treated subjects (e.g., Sprague Dawley rats, a white rat with easily visualizable changes in redness/paleness) vs. untreated control subjects. The V1a agonist (or partial agonist) with a high therapeutic index will have a better safety profile than that with a low therapeutic index by providing a wider margin of safety for dosing during the treatment of the disease. This NOAEL/NOEL ratio, being a quantitative measure of the relative safety, is a comparison of the amount of a therapeutic agent that causes the therapeutic effect (useful effect, vasoconstriction for the purpose of the present specification) to the amount that causes toxicity. A V1a agonist that causes severe vasoconstriction will affect not only the peripheral vessels, with several layer of smooth muscles, but also other vessels present in other organs (e.g., heart, lungs, kidney, brain) and this will result in observed lethargy and eventually ataxia. A partial agonist is less likely to reach such an extreme level of vasoconstriction and is believed to have a higher therapeutic index.
In this study, 8 to 10 weeks male Sprague-Dawley rats (Charles River; Wilmington, MA) under isoflurane anesthesia (n=3 or 6) were intravenously (IV) or subcutaneously (SC) injected or administered with various test articles. Prior to administration of test articles, the injection area was clipped free of fur, to allow for clear visualization of the dose site, and animal weight was measured and recorded. Animals were housed two per cage. […] Lethargy is when the animal eyes cannot fully open and is associated deep breathing and limited of movement even in the presence of human.

[3] = FIG. 2 / FIG. 3 legend, n=2, read-out: EC50 for V1a receptor
[4] = at the Marked adverse effect dose
[5] = at the Mild adverse effect dose
[6] = Table 3, CHO cells expressing human V1 receptor, read-out: Estimated V1a EC50 (nM), n = 2

T1 sequence (P37288 whole entry): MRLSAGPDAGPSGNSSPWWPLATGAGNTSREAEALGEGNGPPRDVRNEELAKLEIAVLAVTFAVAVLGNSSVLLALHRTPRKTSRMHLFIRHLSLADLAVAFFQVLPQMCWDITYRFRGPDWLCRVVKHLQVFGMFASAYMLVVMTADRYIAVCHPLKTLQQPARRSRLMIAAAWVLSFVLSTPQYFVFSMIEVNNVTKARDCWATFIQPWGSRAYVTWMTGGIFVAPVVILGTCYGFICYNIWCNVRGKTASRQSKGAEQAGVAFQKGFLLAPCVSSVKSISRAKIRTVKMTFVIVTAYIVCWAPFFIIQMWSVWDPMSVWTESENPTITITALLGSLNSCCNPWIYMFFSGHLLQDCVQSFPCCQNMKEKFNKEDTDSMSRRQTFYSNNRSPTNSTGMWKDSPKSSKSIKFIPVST

Compound	EC50 [1, 3] [nM]	Emax ([1]; Table 3, n = 2) [%]	Paleness (Duration, hrs; SD) [2, 4]	Paleness (Duration, hrs; SD) [2, 5]	Paleness (Duration, hrs; SD) ([2]; at the NOAEL dose)	Paleness (Duration, hrs; SD) ([2]; at the NOEL dose)	Highest dose with no-observed effect level or paleness (NOEL) [2] [mg/kg]	NOAEL/NOEL (therapeutic index) [2]	NOAEL at 24 h [2] [mg/kg]	Marked adverse effect (Lowest dose first showed Ataxia) [2] [mg/kg]	Mild adverse effect (Lowest dose first showed Lethargy) [2] [mg/kg]	EC50 [1, 6] [nM]
NCC(=O)NCC(=O)NCC(=O)NCCCC[C@H](NC(=O)[C@@H]1CCCN1C(=O)[C@@H]1CSSCCC(=O)N[C@@H](Cc2ccc(O)cc2)C(=O)N[C@@H](Cc2ccccc2)C(=O)N[C@@H](CCCC(N)=O)C(=O)N[C@@H](CC(N)=O)C(=O)N1)C(=O)NCC(N)=O [SEQ ID NO. 10, Mpa-Tyr-Phe-Hgn-Asn-Cys-Pro-Lys(X)a-Gly-NH2; (X)a = (Gly)3]	53.5	32.9	(6.4 ± 0.07) hrs	(6.27 ± 0.13) hrs	(5.65 ± 0.4) hrs	None observed	0.0015	100	0.15	1.5	0.5	
NCC(=O)NCC(=O)NCC(=O)NCC(=O)NCCCC[C@H](NC(=O)[C@@H]1CCCN1C(=O)[C@@H]1CSSCCC(=O)N[C@@H](Cc2ccc(O)cc2)C(=O)N[C@@H](Cc2ccccc2)C(=O)N[C@@H](CCCC(N)=O)C(=O)N[C@@H](CC(N)=O)C(=O)N1)C(=O)NCC(N)=O [SEQ ID NO. 11, Mpa-Tyr-Phe-Hgn-Asn-Cys-Pro-Lys(X)a-Gly-NH2; (X)a = (Gly)4]		33.6	(>6.93)* hrs	(>6.85)* hrs	(6.02 ± 0.06) hrs	None Observed	0.0015	100	0.15	1.5	0.5	161
NCC(=O)NCC(=O)NCC(=O)NCC(=O)NCC(=O)NCCCC[C@H](NC(=O)[C@@H]1CCCN1C(=O)[C@@H]1CSSCCC(=O)N[C@@H](Cc2ccc(O)cc2)C(=O)N[C@@H](Cc2ccccc2)C(=O)N[C@@H](CCCC(N)=O)C(=O)N[C@@H](CC(N)=O)C(=O)N1)C(=O)NCC(N)=O [SEQ ID NO. 12, Mpa-Tyr-Phe-Hgn-Asn-Cys-Pro-Lys(X)a-Gly-NH2; (X)a = (Gly)5]		29.6	(>6.69)* hrs	(>6.65)* hrs	(5.79 ± 0.08) hrs	None Observed	0.0015	100	0.15	1.5	0.5	50.1
NCC(=O)NCC(=O)NCC(=O)NCC(=O)NCC(=O)NCC(=O)NCC(=O)NCCCC[C@H](NC(=O)[C@@H]1CCCN1C(=O)[C@@H]1CSSCCC(=O)N[C@@H](Cc2ccc(O)cc2)C(=O)N[C@@H](Cc2ccccc2)C(=O)N[C@@H](CCCC(N)=O)C(=O)N[C@@H](CC(N)=O)C(=O)N1)C(=O)NCC(N)=O [SEQ ID NO. 14, Mpa-Tyr-Phe-Hgn-Asn-Cys-Pro-Lys(X)a-Gly-NH2; (X)a = (Gly)7]		26.1	(>6.44)* hrs	(>6.39)* hrs	(5.86 ± 0.13) hrs	None Observed	0.0015	100	0.15	1.5	0.5	30.9
NCC(=O)NCC(=O)NCC(=O)NCC(=O)NCC(=O)NCC(=O)NCC(=O)NCC(=O)NCCCC[C@H](NC(=O)[C@@H]1CCCN1C(=O)[C@@H]1CSSCCC(=O)N[C@@H](Cc2ccc(O)cc2)C(=O)N[C@@H](Cc2ccccc2)C(=O)N[C@@H](CCCC(N)=O)C(=O)N[C@@H](CC(N)=O)C(=O)N1)C(=O)NCC(N)=O [SEQ ID NO. 15, Mpa-Tyr-Phe-Hgn-Asn-Cys-Pro-Lys(X)a-Gly-NH2; (X)a = (Gly)8]		24.8	(>6.19)* hrs	(>6.17)* hrs	(5.68 ± 0.06) hrs	None Observed	0.0015	100	0.15	1.5	0.5	226
NCC(=O)NCC(=O)NCC(=O)NCC(=O)NCC(=O)NCC(=O)NCC(=O)NCC(=O)NCC(=O)NCCCC[C@H](NC(=O)[C@@H]1CCCN1C(=O)[C@@H]1CSSCCC(=O)N[C@@H](Cc2ccc(O)cc2)C(=O)N[C@@H](Cc2ccccc2)C(=O)N[C@@H](CCCC(N)=O)C(=O)N[C@@H](CC(N)=O)C(=O)N1)C(=O)NCC(N)=O [SEQ ID NO. 16, Mpa-Tyr-Phe-Hgn-Asn-Cys-Pro-Lys(X)a-Gly-NH2; (X)a = (Gly)9]	105	28.1	(>6.99)* hrs	(>6.14)* hrs	(7.14 ± 0.11) hrs	None observed	0.005	100	0.5	5.0	1.5	
